Experimental data as given in patent US6960574B2, “Antagonists of RF-amide neuropeptides” (University of Florida, priority 2002, dated 2005).
Peptide text beside a SMILES is read from it. * marks the point of attachment. Dansyl = CN(C)c1cccc2c(S(=O)(=O)*)cccc12

Test system: receptor labeled by the radioiodinated analogue of 1 (4, [125I]-YLFQPQRF-NH2); neuropeptide FF receptor
Test: Competitive radioligand binding against 4 ([125I]Y8F-amide)
Details: mixture-based positional scanning; difference from averaged radioligand displacement of whole library (0); about 80 a.u. = 10-fold change in Ki

SMILES | Relative Binding Index (RBI)
CN(C)c1cccc2c(S(=O)(=O)N[C@@H](CCCNC(=N)N)C(=O)N[C@@H](CCC(=O)O)C(=O)N[C@@H](CCCNC(=N)N)C(N)=O)cccc12 [Dansyl-RER-amide] (Dansyl-Arg-Glu-Arg-NH2) | 7 a.u.
CN(C)c1cccc2c(S(=O)(=O)N[C@@H](CCCNC(=N)N)C(=O)N[C@@H](Cc3ccccc3)C(=O)N[C@@H](CCCNC(=N)N)C(N)=O)cccc12 [Dansyl-RFR-amide] (Dansyl-Arg-Phe-Arg-NH2) | 5 a.u.
CN(C)c1cccc2c(S(=O)(=O)N[C@@H](CCCNC(=N)N)C(=O)NCC(=O)N[C@@H](CCCNC(=N)N)C(N)=O)cccc12 [Dansyl-RGR-amide] (Dansyl-Arg-Gly-Arg-NH2) | 12 a.u.
CN(C)c1cccc2c(S(=O)(=O)N[C@@H](CCCNC(=N)N)C(=O)N[C@@H](Cc3c[nH]cn3)C(=O)N[C@@H](CCCNC(=N)N)C(N)=O)cccc12 [Dansyl-RHR-amide] (Dansyl-Arg-His-Arg-NH2) | 1 a.u.
CN(C)c1cccc2c(S(=O)(=O)N[C@@H](CCCNC(=N)N)C(=O)N[C@@H](CCCCN)C(=O)N[C@@H](CCCNC(=N)N)C(N)=O)cccc12 [Dansyl-RKR-amide] (Dansyl-Arg-Lys-Arg-NH2) | 4 a.u.
CC(C)C[C@H](NC(=O)[C@H](CCCNC(=N)N)NS(=O)(=O)c1cccc2c(N(C)C)cccc12)C(=O)N[C@@H](CCCNC(=N)N)C(N)=O [Dansyl-RLR-amide] | −2 a.u.
CN(C)c1cccc2c(S(=O)(=O)N[C@@H](CCCNC(=N)N)C(=O)N[C@@H](CC(N)=O)C(=O)N[C@@H](CCCNC(=N)N)C(N)=O)cccc12 [Dansyl-RNR-amide] (Dansyl-Arg-Asn-Arg-NH2) | 8 a.u.
CN(C)c1cccc2c(S(=O)(=O)N[C@@H](CCCNC(=N)N)C(=O)N[C@@H](CCCNC(=N)N)C(=O)N[C@@H](CCCNC(=N)N)C(N)=O)cccc12 [Dansyl-RRR-amide] (Dansyl-Arg-Arg-Arg-NH2) | 5 a.u.
CN(C)c1cccc2c(S(=O)(=O)N[C@@H](CCCNC(=N)N)C(=O)N[C@@H](Cc3c[nH]c4ccccc34)C(=O)N[C@@H](CCCNC(=N)N)C(N)=O)cccc12 [Dansyl-RWR-amide] (Dansyl-Arg-Trp-Arg-NH2) | 16 a.u.
C[C@H](NC(=O)[C@H](CO)NS(=O)(=O)c1cccc2c(N(C)C)cccc12)C(=O)N[C@@H](CCCNC(=N)N)C(N)=O [Dansyl-SAR-amide] (Dansyl-Ser-Ala-Arg-NH2) | −33 a.u.
CN(C)c1cccc2c(S(=O)(=O)N[C@@H](CO)C(=O)N[C@@H](CCC(=O)O)C(=O)N[C@@H](CCCNC(=N)N)C(N)=O)cccc12 [Dansyl-SER-amide] (Dansyl-Ser-Glu-Arg-NH2) | 16 a.u.
CN(C)c1cccc2c(S(=O)(=O)N[C@@H](CO)C(=O)N[C@@H](Cc3ccccc3)C(=O)N[C@@H](CCCNC(=N)N)C(N)=O)cccc12 [Dansyl-SFR-amide] (Dansyl-Ser-Phe-Arg-NH2) | 15 a.u.
CN(C)c1cccc2c(S(=O)(=O)N[C@@H](CO)C(=O)N[C@@H](CCCCN)C(=O)N[C@@H](CCCNC(=N)N)C(N)=O)cccc12 [Dansyl-SKR-amide] (Dansyl-Ser-Lys-Arg-NH2) | 14 a.u.
CSCC[C@H](NC(=O)[C@H](CO)NS(=O)(=O)c1cccc2c(N(C)C)cccc12)C(=O)N[C@@H](CCCNC(=N)N)C(N)=O [Dansyl-SMR-amide] (Dansyl-Ser-Met-Arg-NH2) | 16 a.u.

More lines, now with the values ahead:

Relative Binding Index (RBI) | SMILES
13 a.u. | CC[C@H](C)[C@H](NC(=O)[C@H](CCCNC(=N)N)NS(=O)(=O)c1cccc2c(N(C)C)cccc12)C(=O)N[C@@H](CCCNC(=N)N)C(N)=O [Dansyl-RIR-amide] (Dansyl-Arg-Ile-Arg-NH2)
7 a.u. | CSCC[C@H](NC(=O)[C@H](CCCNC(=N)N)NS(=O)(=O)c1cccc2c(N(C)C)cccc12)C(=O)N[C@@H](CCCNC(=N)N)C(N)=O [Dansyl-RMR-amide] (Dansyl-Arg-Met-Arg-NH2)
10 a.u. | CN(C)c1cccc2c(S(=O)(=O)N[C@@H](CCCNC(=N)N)C(=O)N3CCC[C@H]3C(=O)N[C@@H](CCCNC(=N)N)C(N)=O)cccc12 [Dansyl-RPR-amide] (Dansyl-Arg-Pro-Arg-NH2)
20 a.u. | CN(C)c1cccc2c(S(=O)(=O)N[C@@H](CCCNC(=N)N)C(=O)N[C@@H](CCC(N)=O)C(=O)N[C@@H](CCCNC(=N)N)C(N)=O)cccc12 [Dansyl-RQR-amide] (Dansyl-Arg-Gln-Arg-NH2)
27 a.u. | CN(C)c1cccc2c(S(=O)(=O)N[C@@H](CCCNC(=N)N)C(=O)N[C@@H](CO)C(=O)N[C@@H](CCCNC(=N)N)C(N)=O)cccc12 [Dansyl-RSR-amide] (Dansyl-Arg-Ser-Arg-NH2)
12 a.u. | C[C@@H](O)[C@H](NC(=O)[C@H](CCCNC(=N)N)NS(=O)(=O)c1cccc2c(N(C)C)cccc12)C(=O)N[C@@H](CCCNC(=N)N)C(N)=O [Dansyl-RTR-amide] (Dansyl-Arg-Thr-Arg-NH2)
2 a.u. | CC(C)[C@H](NC(=O)[C@H](CCCNC(=N)N)NS(=O)(=O)c1cccc2c(N(C)C)cccc12)C(=O)N[C@@H](CCCNC(=N)N)C(N)=O [Dansyl-RVR-amide] (Dansyl-Arg-Val-Arg-NH2)
6 a.u. | CN(C)c1cccc2c(S(=O)(=O)N[C@@H](CCCNC(=N)N)C(=O)N[C@@H](Cc3ccc(O)cc3)C(=O)N[C@@H](CCCNC(=N)N)C(N)=O)cccc12 [Dansyl-RYR-amide] (Dansyl-Arg-Tyr-Arg-NH2)
−2 a.u. | CN(C)c1cccc2c(S(=O)(=O)N[C@@H](CO)C(=O)N[C@@H](CC(=O)O)C(=O)N[C@@H](CCCNC(=N)N)C(N)=O)cccc12 [Dansyl-SDR-amide] (Dansyl-Ser-Asp-Arg-NH2)
22 a.u. | CN(C)c1cccc2c(S(=O)(=O)N[C@@H](CO)C(=O)NCC(=O)N[C@@H](CCCNC(=N)N)C(N)=O)cccc12 [Dansyl-SGR-amide] (Dansyl-Ser-Gly-Arg-NH2)
11 a.u. | CN(C)c1cccc2c(S(=O)(=O)N[C@@H](CO)C(=O)N[C@@H](Cc3c[nH]cn3)C(=O)N[C@@H](CCCNC(=N)N)C(N)=O)cccc12 [Dansyl-SHR-amide] (Dansyl-Ser-His-Arg-NH2)
23 a.u. | CC[C@H](C)[C@H](NC(=O)[C@H](CO)NS(=O)(=O)c1cccc2c(N(C)C)cccc12)C(=O)N[C@@H](CCCNC(=N)N)C(N)=O [Dansyl-SIR-amide] (Dansyl-Ser-Ile-Arg-NH2)
8 a.u. | CC(C)C[C@H](NC(=O)[C@H](CO)NS(=O)(=O)c1cccc2c(N(C)C)cccc12)C(=O)N[C@@H](CCCNC(=N)N)C(N)=O [Dansyl-SLR-amide] (Dansyl-Ser-Leu-Arg-NH2)
18 a.u. | CN(C)c1cccc2c(S(=O)(=O)N[C@@H](CO)C(=O)N[C@@H](CC(N)=O)C(=O)N[C@@H](CCCNC(=N)N)C(N)=O)cccc12 [Dansyl-SNR-amide] (Dansyl-Ser-Asn-Arg-NH2)
20 a.u. | CN(C)c1cccc2c(S(=O)(=O)N[C@@H](CO)C(=O)N3CCC[C@H]3C(=O)N[C@@H](CCCNC(=N)N)C(N)=O)cccc12 [Dansyl-SPR-amide] (Dansyl-Ser-Pro-Arg-NH2)
